How the values were obtained:
[1] = target: T1, PTPN2 (HiBIT-PTPN2 in 293T.109 cells) (Homo sapiens, UniProt P17706); assay: HiBiT Degradation 293T.109 PTPN2 (Nano-Glo HiBiT Lytic Assay); assay type: cell-based; details: 24.0 hours
T1 construct: expressed in transfected cells; host or cells: 293T.109 (293T WT from ATCC)
T1 sequence (P17706 1-415): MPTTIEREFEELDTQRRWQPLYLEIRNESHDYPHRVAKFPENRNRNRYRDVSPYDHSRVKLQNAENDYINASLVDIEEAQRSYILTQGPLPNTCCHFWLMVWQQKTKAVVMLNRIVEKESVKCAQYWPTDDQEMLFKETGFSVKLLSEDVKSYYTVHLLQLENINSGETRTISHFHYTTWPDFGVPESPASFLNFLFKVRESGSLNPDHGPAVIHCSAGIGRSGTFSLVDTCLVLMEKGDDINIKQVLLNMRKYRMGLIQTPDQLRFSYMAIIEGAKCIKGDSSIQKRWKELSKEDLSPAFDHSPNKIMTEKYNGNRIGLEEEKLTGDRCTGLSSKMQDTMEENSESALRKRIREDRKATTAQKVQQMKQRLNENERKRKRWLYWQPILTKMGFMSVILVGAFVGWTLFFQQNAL
Source text: Dulbecco's modified Eagle medium (DMEM) without phenol red and fetal bovine serum (FBS) were purchased from Gibco (Grand Island, NY, USA). Nano-Glo® HiBIT Lytic Assay System was purchased from Promega (Madison, WI, USA). 293T.109 (HiBIT-PTPN2) cell line was generated by ectopically expressing PTPN2 with N-terminal HiBIT fusion tag in 293T WT cell line purchased from ATCC (Manassas, VA, USA). Cell culture flasks and 384-well microplates were acquired from VWR (Radnor, PA, USA).
PTPN2 degradation was determined based on quantification of luminescent signal using Nano-Glo® HiBIT Lytic Assay kit. Test compounds were added to the 384-well plate from a top concentration of 10 μM with 11 points, half log titration in duplicates. 293T.109 cells were added into 384-well plates at a cell density of 5000 cells per well. The plates were kept at 37° C. with 5% CO2 for 24 hours. The cells treated in the absence of the test compound were the negative control and the cells without Nano-Glo® HiBIT Lytic reagent were the positive control. After 24-hour incubation, Nano-Glo® HiBiT Lytic Assay reagents were added to the cells. Luminescence was acquired on EnVision™ Multilabel Reader (PerkinElmer, Santa Clara, CA, USA).

PTPN2 (B16F10.4 cells) = target: T2, PTPN2 (B16F10.4 cells) (Mus musculus, UniProt Q06180); assay: HiBiT Degradation B16F10.4 PTPN2; assay type: cell-based; details: 24.0 hours
T2 construct: HiBiT; host or cells: B16F10.4
T2 sequence (Q06180 1-406): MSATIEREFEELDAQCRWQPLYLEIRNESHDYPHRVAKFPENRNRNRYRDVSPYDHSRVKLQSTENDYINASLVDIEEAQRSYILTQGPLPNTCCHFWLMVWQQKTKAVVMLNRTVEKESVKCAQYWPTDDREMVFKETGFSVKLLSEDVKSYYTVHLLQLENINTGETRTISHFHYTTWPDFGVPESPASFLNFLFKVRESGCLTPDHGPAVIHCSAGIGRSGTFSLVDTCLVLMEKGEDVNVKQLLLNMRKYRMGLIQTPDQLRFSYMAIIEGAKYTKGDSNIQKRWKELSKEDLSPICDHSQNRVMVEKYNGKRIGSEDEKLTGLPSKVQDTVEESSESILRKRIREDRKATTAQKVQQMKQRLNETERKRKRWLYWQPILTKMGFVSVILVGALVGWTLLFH

DC50 [1] [nM]	DC50 (PTPN2 (B16F10.4 cells)) [nM]	SMILES
50 to 200	50 to 200	CCn1nc(C2CCC(=O)NC2=O)c2ccc(C3CCN(C(=O)Nc4cccc(CS(=O)(=O)N5CC[C@H](Nc6cccc(-c7sc(C(=O)O)c(OCC(=O)O)c7Cl)c6)CC5(C)C)c4)CC3(F)F)cc21 (stereo partly drawn) [Example 200, 3-(carboxymethoxy)-4-chloro-5-[3-[[(4S)-1-[[3-[[4-[3-(2,6-dioxo-3-piperidyl)-1-ethyl-indazol-6-yl]-3,3-difluoro-piperidine-1-carbonyl]amino]phenyl]methylsulfonyl]-2,2-dimethyl-4-piperidyl]amino]phenyl]thiophene-2-carboxylic acid]
200 to 1000	200 to 1000	Cn1c(=O)n(C2CCC(=O)NC2=O)c2ccc(CN3CCN(C(=O)Nc4cccc(CS(=O)(=O)N5CC[C@H](Nc6cccc(-c7sc(C(=O)O)c(OCC(=O)O)c7Cl)c6)CC5(C)C)c4)CC3)cc21 (stereo partly drawn) [Example 221, 3-(carboxymethoxy)-4-chloro-5-[3-[[(4S)-1-[[3-[[4-[[1-(2,6-dioxo-3-piperidyl)-3-methyl-2-oxo-benzimidazol-5-yl]methyl]piperazine-1-carbonyl]amino]phenyl]methylsulfonyl]-2,2-dimethyl-4-piperidyl]amino]phenyl]thiophene-2-carboxylic acid]
50 to 200	50 to 200	Cn1c(=O)n(C2CCC(=O)NC2=O)c2ccc(N3CCC(C(=O)Nc4cccc(CS(=O)(=O)N5CCC(Nc6cccc(-c7sc(C(=O)O)c(OCC(=O)O)c7Cl)c6)CC5)c4)CC3)cc21 (stereo not shown) [Example 112, 3-(carboxymethoxy)-4-chloro-5-[3-[[1-[[3-[[1-[1-(2,6-dioxo-3-piperidyl)-3-methyl-2-oxo-benzimidazol-5-yl]piperidine-4-carbonyl]amino]phenyl]methylsulfonyl]-4-piperidyl]amino]phenyl]thiophene-2-carboxylic acid]
50 to 200	50 to 200	CC1(C)C[C@@H](Nc2cccc(-c3sc(C(=O)O)c(OCC(=O)O)c3Cl)c2)CCN1S(=O)(=O)Cc1cccc(NC(=O)N2CCC(c3ccc4c5c(cccc35)N(C3CCC(=O)NC3=O)C4=O)CC2)c1 (stereo partly drawn) [Example 205, 3-(carboxymethoxy)-4-chloro-5-[3-[[(4S)-1-[[3-[[4-[1-(2,6-dioxo-3-piperidyl)-2-oxo-benzo[cd]indol-S-yl]piperidine-1-carbonyl]amino]phenyl]methylsulfonyl]-2,2-dimethyl-4-piperidyl]amino]phenyl]thiophene-2-carboxylic acid]
50 to 200	50 to 200	CC1(C)C[C@@H](Nc2cccc(-c3sc(C(=O)O)c(OCC(=O)O)c3Cl)c2)CCN1S(=O)(=O)Cc1cccc(NC(=O)CCC(=O)NCc2ccc3c4c(cccc24)C(=O)N3C2CCC(=O)NC2=O)c1 (stereo partly drawn) [Example 220, 3-(carboxymethoxy)-4-chloro-5-(3-(((4S)-1-((3-(4-(((1-(2,6-dioxopiperidin-3-yl)-2-oxo-1,2-dihydrobenzo[cd]indol-6-yl)methyl)amino)-4-oxobutanamido)benzyl)sulfonyl)-2,2-dimethylpiperidin-4-yl)amino)phenyl)thiophene-2-carboxylic acid]
200 to 1000	< 50	CC1(C)C[C@H](Nc2cccc(-c3sc(C(=O)O)c(OCC(=O)O)c3Cl)c2)CCN1S(=O)(=O)Cc1cc(NC(=O)N2CCC(c3ccc4c5c(cccc35)C(=O)N4C3CCC(=O)NC3=O)CC2)ccc1F (stereo partly shown) [Example 162]
50 to 200	200 to 1000	CC1(C)C[C@@H](Nc2cccc(-c3sc(C(=O)O)c(OCC(=O)O)c3Cl)c2)CCN1S(=O)(=O)Cc1ccc(F)c(NC(=O)[C@H]2[C@@H]3CN(C(=O)CNc4cccc5c4CN(C4CCC(=O)NC4=O)C5=O)C[C@@H]32)c1 (stereo partly drawn) [Example 110, 3-(carboxymethoxy)-4-chloro-5-(3-(((4S)-1-((3-((1R,5S,6r)-3-((2-(2,6-dioxopiperidin-3-yl)-1-oxoisoindolin-4-yl)glycyl)-3-azabicyclo[3.1.0]hexane-6-carboxamido)-4-fluorobenzyl)sulfonyl)-2,2-dimethylpiperidin-4-yl)amino)phenyl)thiophene-2-carboxylic acid]
200 to 1000	200 to 1000	CC1(C)C[C@@H](Nc2cccc(-c3sc(C(=O)O)c(OCC(=O)O)c3Cl)c2)CCN1S(=O)(=O)Cc1cccc(NC(=O)N2CCC(c3ccc4c(ccn4C4CCC(=O)NC4=O)c3)CC2)c1 (stereo partly drawn) [Example 196, 3-(carboxymethoxy)-4-chloro-5-(3-(((4S)-1-((3-(4-(1-(2,6-dioxopiperidin-3-yl)-1H-indol-5-yl)piperidine-1-carboxamido)benzyl)sulfonyl)-2,2-dimethylpiperidin-4-yl)amino)phenyl)thiophene-2-carboxylic acid]
50 to 200	50 to 200	Cn1c(=O)n([C@@H]2CCC(=O)NC2=O)c2ccc([C@@H]3CCN(C(=O)Nc4cccc(CS(=O)(=O)N5CC[C@H](Nc6cccc(-c7sc(C(=O)O)c(OCC(=O)O)c7Cl)c6)CC5(C)C)c4)CC3(F)F)cc21 (single isomer, unassigned) [Example 169b]
50 to 200	50 to 200	Cn1c(=O)n(C2CCC(=O)NC2=O)c2ccc3c(c21)CCCN3C1CCN(C(=O)Nc2cccc(CS(=O)(=O)N3CC[C@H](Nc4cccc(-c5sc(C(=O)O)c(OCC(=O)O)c5Cl)c4)CC3(C)C)c2)CC1 (stereo partly drawn) [Example 222, 3-(carboxymethoxy)-4-chloro-5-[3-[[(4S)-1-[[3-[[4-[3-(2,6-dioxo-3-piperidyl)-1-methyl-2-oxo-8,9-dihydro-7H-imidazo[4,5-f]quinolin-6-yl]piperidine-1-carbonyl]amino]phenyl]methylsulfonyl]-2,2-dimethyl-4-piperidyl]amino]phenyl]thiophene-2-carboxylic acid]
200 to 1000	≥ 1000	O=C(O)COc1c(C(=O)O)sc(-c2cccc(NC3CCN(S(=O)(=O)Cc4cccc(NC(=O)CCOCCCc5cccc6c5C(=O)N(C5CCC(=O)NC5=O)C6=O)c4)CC3)c2)c1Cl (stereo not shown) [Example 27, 3-(carboxymethoxy)-4-chloro-5-[3-[[1-[[3-[3-[3-[2-(2,6-dioxo-3-piperidyl)-1,3-dioxo-isoindolin-4-yl]propoxy]propanoylamino]phenyl]methylsulfonyl]-4-piperidyl]amino]phenyl]thiophene-2-carboxylic acid]
50 to 200	200 to 1000	CC1(C)C[C@@H](Nc2cccc(-c3sc(C(=O)O)c(OCC(=O)O)c3Cl)c2)CCN1S(=O)(=O)Cc1cccc(NC(=O)N2CCN(C(=O)CNc3cccc4c3CN(C3CCC(=O)NC3=O)C4=O)CC2)c1 (stereo partly drawn) [Example 62, 3-(carboxymethoxy)-4-chloro-5-(3-(((4S)-1-((3-(4-((2-(2,6-dioxopiperidin-3-yl)-1-oxoisoindolin-4-yl)glycyl)piperazine-1-carboxamido)benzyl)sulfonyl)-2,2-dimethylpiperidin-4-yl)amino)phenyl)thiophene-2-carboxylic acid]
200 to 1000	200 to 1000	Cn1nc(C2CCC(=O)NC2=O)c2ccc(CCC(=O)Nc3cccc(CS(=O)(=O)N4CCC(Nc5cccc(-c6sc(C(=O)O)c(OCC(=O)O)c6Cl)c5)CC4)c3)cc21 (stereo not shown) [Example 157, 3-(carboxymethoxy)-4-chloro-5-[3-[[1-[[3-[3-[3-(2,6-dioxo-3-piperidyl)-1-methyl-indazol-6-yl]propanoylamino]phenyl]methylsulfonyl]-4-piperidyl]amino]phenyl]thiophene-2-carboxylic acid]
200 to 1000	200 to 1000	CC1(C)C[C@@H](Nc2cccc(-c3sc(C(=O)O)c(OCC(=O)O)c3Cl)c2)CCN1S(=O)(=O)Cc1cccc(NC(=O)CCOCCOCCOCCCc2cccc3c2C(=O)N(C2CCC(=O)NC2=O)C3=O)c1 (stereo partly drawn) [Example 35, 3-(carboxymethoxy)-4-chloro-5-[3-[[(4S)-1-[[3-[3-[2-[2-[3-[2-(2,6-dioxo-3-piperidyl)-1,3-dioxo-isoindolin-4-yl]propoxy]ethoxy]ethoxy]propanoylamino]phenyl]methylsulfonyl]-2,2-dimethyl-4-piperidyl]amino]phenyl]thiophene-2-carboxylic acid]

— patent US20250302815A1, “PROTEIN TYROSINE PHOSPHATASE TARGETING LIGANDS” (CALICO LIFE SCIENCES LLC, priority 2021, published 2025)
